Laboratory results: patent US9802901B2, “Antibacterial 2H-indazole derivatives” (priority 2013, dated 2017)
Converted amounts (≈) assume the structure as drawn.

Key:
Assay in all cases: Bacterial growth minimal inhibitory concentration (broth microdilution, CLSI M7-A7)
[1] = test system: K. pneumoniae A-651; assay type: cell-based, Klebsiella pneumoniae; details: cation-adjusted Mueller-Hinton Broth, microdilution, multiply-resistant (quinolone-resistant) strain; for MIC: Klebsiella pneumoniae, A651, read-out: MIC for K. Pneumoniae A-651
Method: (§1) Minimal Inhibitory Concentrations (MICs; mg/L) were determined in cation-adjusted Mueller-Hinton Broth by a microdilution method following the description given in “Methods for Dilution Antimicrobial Susceptibility Tests for Bacteria that Grow Aerobically”, Approved standard, 7th ed., Clinical and Laboratory Standards Institute (CLSI) Document M7-A7, Wayne, Pa., USA (2006).
(§2) All Example compounds, except the compound of Example 62, were tested against several Gram-positive and Gram-negative bacteria. […] K. pneumoniae A-651 and Acinetobacter baumannii T6474 are multiply-resistant strains (in particular quinolone-resistant), while E. coli ATCC25922 and P. aeruginosa ATCC27853 are quinolone-sensitive strains.

[2] = test system: E. coli ATCC25922; assay type: cell-based, Escherichia coli; details: cation-adjusted Mueller-Hinton Broth, microdilution, quinolone-sensitive strain; for MIC: Escherichia coli, ATCC25922, read-out: MIC for E. coli ATCC25922
Method: as §1, §2

[3] = test system: P. aeruginosa ATCC27853; assay type: cell-based, Pseudomonas aeruginosa; details: cation-adjusted Mueller-Hinton Broth, microdilution, quinolone-sensitive strain; for MIC: Pseudomonas aeruginosa, ATCC27853, read-out: MIC for P. aeruginosa ATCC27853
Method: as §1, §2

[4] = test system: Acinetobacter baumannii T6474; assay type: cell-based; details: cation-adjusted Mueller-Hinton Broth, microdilution, multiply-resistant (quinolone-resistant) strain; for MIC: Acinetobacter baumannii, T6474, read-out: MIC for A. Baumannii T6474
Method: as §1, §2

C[C@@](CCn1cc2cc(C#Cc3ccc(NC(=O)CO)cc3)ccc2n1)(C(=O)NO)S(C)(=O)=O [Example 47, (R)—N-hydroxy-4-(5-((4-(2-hydroxyacetamido)phenyl)ethynyl)-2H-indazol-2-yl)-2-methyl-2-(methylsulfonyl)butanamide]
MIC [1]: 0.5 µg/mL (≈ 1.03 µM)
MIC [2]: 0.25 µg/mL (≈ 0.516 µM)
MIC [3]: 1 µg/mL (≈ 2.06 µM)
MIC [4]: 1 µg/mL (≈ 2.06 µM)

CC(C)(O)c1ccc(C#Cc2ccc3nn(CC[C@](C)(C(=O)NO)S(C)(=O)=O)cc3c2F)cc1 [Example 14, (R)-4-(4-fluoro-5-((4-(2-hydroxypropan-2-yl)phenyl)ethynyl)-2H-indazol-2-yl)-N-hydroxy-2-methyl-2-(methylsulfonyl)butanamide]
MIC [1]: 0.25 µg/mL (≈ 0.513 µM)
MIC [2]: 0.25 µg/mL (≈ 0.513 µM)
MIC [3]: 2 µg/mL (≈ 4.1 µM)
MIC [4]: 16 µg/mL (≈ 32.8 µM)

C[C@@](CCn1cc2cc(C#CC#CC3CCN(C(=O)CN)CC3)ccc2n1)(C(=O)NO)S(C)(=O)=O.O=CO [Example 83, (R)-4-(5-((1-glycylpiperidin-4-yl)buta-1,3-diyn-1-yl)-2H-indazol-2-yl)-N-hydroxy-2-methyl-2-(methylsulfonyl)butanamide formate]
MIC [1]: 8 µg/mL
MIC [2]: 2 µg/mL
MIC [3]: 4 µg/mL
MIC [4]: 32 µg/mL

CC(C)(N)CC#CC#Cc1ccc2nn(CC[C@](C)(C(=O)NO)S(C)(=O)=O)cc2c1 [Example 82, (R)-4-(5-(6-amino-6-methylhepta-1,3-diyn-1-yl)-2H-indazol-2-yl)-N-hydroxy-2-methyl-2-(methylsulfonyl)butanamide]
MIC [1]: 8 µg/mL (≈ 18.6 µM)
MIC [2]: 4 µg/mL (≈ 9.29 µM)
MIC [3]: 4 µg/mL (≈ 9.29 µM)
MIC [4]: > 32 µg/mL

CN(C)c1ccc(-c2ccc3nn(CC[C@](C)(C(=O)NO)S(C)(=O)=O)cc3c2)cc1 [Example 11, (R)-4-[5-(4-dimethylamino-phenyl)-indazol-2-yl]-N-hydroxy-2-methylsulfonyl-2-methyl-butanamide]
MIC [1]: 0.063 µg/mL (≈ 0.146 µM)
MIC [2]: 0.063 µg/mL (≈ 0.146 µM)
MIC [3]: 8 µg/mL (≈ 18.6 µM)
MIC [4]: 2 µg/mL (≈ 4.65 µM)

C[C@@](CCn1cc2cc(C#CC#C[C@H]3C[C@@H]3CO)ccc2n1)(C(=O)NO)S(C)(=O)=O.O=CO [Example 36, (R)—N-hydroxy-4-(5-(((1S,2S)-2-(hydroxymethyl)cyclopropyl)buta-1,3-diyn-1-yl)-2H-indazol-2-yl)-2-methyl-2-(methylsulfonyl)butanamide formate]
MIC [1]: 0.125 µg/mL
MIC [2]: 0.063 µg/mL
MIC [3]: 0.25 µg/mL
MIC [4]: 2 µg/mL

CC(CCn1cc2cc(-c3ccc(OCCN4CCOCC4)cc3)ccc2n1)(C(=O)NO)S(C)(=O)=O.O=CO (racemic) [RE2, (RS)—N-hydroxy-2-methylsulfonyl-2-methyl-4-{5-[4-(2-morpholin-4-yl-ethoxy)-phenyl]-indazol-2-yl}-butanamide formic acid salt]
MIC [1]: 1 µg/mL
MIC [2]: 1 µg/mL
MIC [3]: 4 µg/mL
MIC [4]: 4 µg/mL

CC(C)(O)c1ccc(C#Cc2ccc3nn(CC[C@](C)(C(=O)NO)S(C)(=O)=O)cc3c2)cc1 [Example 27, (R)—N-hydroxy-4-(5-((4-(2-hydroxypropan-2-yl)phenyl)ethynyl)-2H-indazol-2-yl)-2-methyl-2-(methylsulfonyl)butanamide]
MIC [1]: 0.125 µg/mL (≈ 0.266 µM)
MIC [2]: 0.063 µg/mL (≈ 0.134 µM)
MIC [3]: 0.5 µg/mL (≈ 1.06 µM)
MIC [4]: 0.25 µg/mL (≈ 0.532 µM)

C[C@@](CCn1cc2cc(C#CC#CC3(O)CCOCC3)ccc2n1)(C(=O)NO)S(C)(=O)=O [Example 15, (R)—N-hydroxy-4-(5-((4-hydroxytetrahydro-2H-pyran-4-yl)buta-1,3-diyn-1-yl)-2H-indazol-2-yl)-2-methyl-2-(methylsulfonyl)butanamide]
MIC [1]: 2 µg/mL (≈ 4.35 µM)
MIC [2]: 2 µg/mL (≈ 4.35 µM)
MIC [3]: 2 µg/mL (≈ 4.35 µM)
MIC [4]: > 32 µg/mL

C[C@@](CCn1cc2cc(C#Cc3ccc([C@H](O)CO)cc3)ccc2n1)(C(=O)NO)S(C)(=O)=O [Example 51, (R)-4-(5-((4-((S)-1,2-dihydroxyethyl)phenyl)ethynyl)-2H-indazol-2-yl)-N-hydroxy-2-methyl-2-(methylsulfonyl)butanamide]
MIC [1]: 0.5 µg/mL (≈ 1.06 µM)
MIC [2]: 1 µg/mL (≈ 2.12 µM)
MIC [3]: 0.5 µg/mL (≈ 1.06 µM)
MIC [4]: 1 µg/mL (≈ 2.12 µM)

C[C@@](CCn1cc2c(F)c(C#Cc3ccc(C4(O)COC4)cc3)ccc2n1)(C(=O)NO)S(C)(=O)=O [Example 29, (R)-4-{4-fluoro-5-[4-(3-hydroxy-oxetan-3-yl)-phenylethynyl]-indazol-2-yl}-N-hydroxy-2-methylsulfonyl-2-methyl-butanamide]
MIC [1]: 0.25 µg/mL (≈ 0.498 µM)
MIC [2]: 0.25 µg/mL (≈ 0.498 µM)
MIC [3]: 1 µg/mL (≈ 1.99 µM)
MIC [4]: 0.5 µg/mL (≈ 0.997 µM)

C[C@@](CCn1cc2cc(C#Cc3ccc(OCCO)cc3)ccc2n1)(C(=O)NO)S(C)(=O)=O [Example 44, (R)—N-hydroxy-4-(5-((4-(2-hydroxyethoxy)phenyl)ethynyl)-2H-indazol-2-yl)-2-methyl-2-(methylsulfonyl)butanamide]
MIC [1]: 0.25 µg/mL (≈ 0.53 µM)
MIC [2]: 0.125 µg/mL (≈ 0.265 µM)
MIC [3]: 1 µg/mL (≈ 2.12 µM)
MIC [4]: 0.25 µg/mL (≈ 0.53 µM)

C[C@@](CCn1cc2cc(C#CC#CC3(O)CSC3)ccc2n1)(C(=O)NO)S(C)(=O)=O [Example 13, (R)—N-hydroxy-4-(5-((3-hydroxythietan-3-yl)buta-1,3-diyn-1-yl)-2H-indazol-2-yl)-2-methyl-2-(methylsulfonyl)butanamide]
MIC [1]: 0.25 µg/mL (≈ 0.559 µM)
MIC [2]: 0.125 µg/mL (≈ 0.279 µM)
MIC [3]: 0.5 µg/mL (≈ 1.12 µM)
MIC [4]: 32 µg/mL (≈ 71.5 µM)

C[C@@](CCn1cc2cc(-c3ccc(OC(F)(F)F)cc3)ccc2n1)(C(=O)NO)S(C)(=O)=O [Example 8, (R)—N-hydroxy-2-methylsulfonyl-2-methyl-4-[5-(4-trifluoromethoxy-phenyl)-indazol-2-yl]-butanamide]
MIC [1]: 0.5 µg/mL (≈ 1.06 µM)
MIC [2]: 0.25 µg/mL (≈ 0.53 µM)
MIC [3]: 4 µg/mL (≈ 8.48 µM)
MIC [4]: 0.125 µg/mL (≈ 0.265 µM)

C[C@@](CCn1cc2cc(-c3ccc(OC[C@H](O)CO)cc3F)ccc2n1)(C(=O)NO)S(C)(=O)=O [Example 58, (R)-4-(5-(4-((R)-2,3-dihydroxypropoxy)-2-fluorophenyl)-2H-indazol-2-yl)-N-hydroxy-2-methyl-2-(methylsulfonyl)butanamide]
MIC [1]: 4 µg/mL (≈ 8.07 µM)
MIC [2]: 2 µg/mL (≈ 4.04 µM)
MIC [3]: 2 µg/mL (≈ 4.04 µM)
MIC [4]: 8 µg/mL (≈ 16.1 µM)

C[C@@](CCn1cc2cc(-c3ccc(OC(F)(F)F)cc3F)ccc2n1)(C(=O)NO)S(C)(=O)=O [Example 35, (R)-4-[5-(2-fluoro-4-trifluoromethoxy-phenyl)-indazol-2-yl]-N-hydroxy-2-methylsulfonyl-2-methyl-butanamide]
MIC [1]: 0.5 µg/mL (≈ 1.02 µM)
MIC [2]: 0.125 µg/mL (≈ 0.255 µM)
MIC [3]: 4 µg/mL (≈ 8.17 µM)
MIC [4]: 0.25 µg/mL (≈ 0.511 µM)

C[C@@](CCn1cc2cc(C#CC#CCC3(O)COC3)ccc2n1)(C(=O)NO)S(C)(=O)=O [Example 80, (R)—N-hydroxy-4-(5-(5-(3-hydroxyoxetan-3-yl)penta-1,3-diyn-1-yl)-2H-indazol-2-yl)-2-methyl-2-(methylsulfonyl)butanamide]
MIC [1]: 1 µg/mL (≈ 2.24 µM)
MIC [2]: 0.5 µg/mL (≈ 1.12 µM)
MIC [3]: 1 µg/mL (≈ 2.24 µM)
MIC [4]: 32 µg/mL (≈ 71.8 µM)

C[C@@](CCn1cc2cc(C#Cc3ccc(C4(O)COC4)cc3)ccc2n1)(C(=O)NO)S(C)(=O)=O [Example 20, (R)—N-hydroxy-4-{5-[4-(3-hydroxy-oxetan-3-yl)-phenylethynyl]-indazol-2-yl}-2-methylsulfonyl-2-methyl-butanamide]
MIC [1]: 0.125 µg/mL (≈ 0.259 µM)
MIC [2]: 0.25 µg/mL (≈ 0.517 µM)
MIC [3]: 0.5 µg/mL (≈ 1.03 µM)
MIC [4]: 0.5 µg/mL (≈ 1.03 µM)

CN(C)C1(c2ccc(C#Cc3ccc4nn(CC[C@](C)(C(=O)NO)S(C)(=O)=O)cc4c3)cc2)COC1.Cc1ccc(S(=O)(=O)O)cc1 [Example 30, (R)-4-{5-[4-(3-dimethylamino-oxetan-3-yl)-phenylethynyl]-indazol-2-yl}-N-hydroxy-2-methylsulfonyl-2-methyl-butanamide toluene-4-sulfonic acid salt]
MIC [1]: 2 µg/mL
MIC [2]: 1 µg/mL
MIC [3]: 4 µg/mL
MIC [4]: 2 µg/mL

(R)-4-(5-(5-amino-5-methylhexa-1,3-diyn-1-yl)-2H-indazol-2-yl)-N-hydroxy-2-methyl-2-(methylsulfonyl)butanamide [Example 24]
MIC for K. Pneumoniae A-651 [1]: 1 µg/mL
MIC for E. coli ATCC25922 [2]: 0.5 µg/mL
MIC for P. aeruginosa ATCC27853 [3]: 0.5 µg/mL
MIC for A. Baumannii T6474 [4]: >32 µg/mL

C[C@@](CCn1cc2cc(C#Cc3ccc(CN4CCOCC4)cc3)ccc2n1)(C(=O)NO)S(C)(=O)=O.O=CO [Example 7, (R)—N-hydroxy-2-methylsulfonyl-2-methyl-4-[5-(4-morpholin-4-ylmethyl-phenylethynyl)-indazol-2-yl]-butanamide formate]
MIC [1]: 0.125 µg/mL
MIC [2]: 0.25 µg/mL
MIC [3]: 2 µg/mL
MIC [4]: 0.5 µg/mL

C[C@@](CCn1cc2cc(C#CC#CC3(CO)CCC3)ccc2n1)(C(=O)NO)S(C)(=O)=O [Example 73, (R)—N-hydroxy-4-(5-((1-(hydroxymethyl)cyclobutyl)buta-1,3-diyn-1-yl)-2H-indazol-2-yl)-2-methyl-2-(methylsulfonyl)butanamide]
MIC [1]: 0.25 µg/mL (≈ 0.564 µM)
MIC [2]: 0.125 µg/mL (≈ 0.282 µM)
MIC [3]: 1 µg/mL (≈ 2.25 µM)
MIC [4]: 32 µg/mL (≈ 72.1 µM)

C[C@@](CCn1cc2cc(C#Cc3ccc(C4(CO)CC4)cc3)ccc2n1)(C(=O)NO)S(C)(=O)=O [Example 16, (R)—N-hydroxy-4-(5-((4-(1-(hydroxymethyl)cyclopropyl)phenyl)ethynyl)-2H-indazol-2-yl)-2-methyl-2-(methylsulfonyl)butanamide]
MIC [1]: 0.125 µg/mL (≈ 0.26 µM)
MIC [2]: 0.125 µg/mL (≈ 0.26 µM)
MIC [3]: 1 µg/mL (≈ 2.08 µM)
MIC [4]: 0.5 µg/mL (≈ 1.04 µM)
